Source: PMC6407579, “New flavonoid – N,N-dibenzyl(N-methyl)amine hybrids: Multi-target-directed agents for Alzheimer´s disease endowed with neurogenic properties” (Journal of Enzyme Inhibition and Medicinal Chemistry, 2019)
Values joined by “and” are separate entries in the source; they are usually repeats but may differ in a detail not shown here. Equal values may be shown once. Read-outs that look alike come from different tables or passages of the source.

Legend:
[1] = target: T1, human recombinant AChE (hAChE) (Homo sapiens, UniProt P22303); assay: biochemical
T1 construct: purchased Sigma Chemical Co
T1 sequence (P22303 32-614): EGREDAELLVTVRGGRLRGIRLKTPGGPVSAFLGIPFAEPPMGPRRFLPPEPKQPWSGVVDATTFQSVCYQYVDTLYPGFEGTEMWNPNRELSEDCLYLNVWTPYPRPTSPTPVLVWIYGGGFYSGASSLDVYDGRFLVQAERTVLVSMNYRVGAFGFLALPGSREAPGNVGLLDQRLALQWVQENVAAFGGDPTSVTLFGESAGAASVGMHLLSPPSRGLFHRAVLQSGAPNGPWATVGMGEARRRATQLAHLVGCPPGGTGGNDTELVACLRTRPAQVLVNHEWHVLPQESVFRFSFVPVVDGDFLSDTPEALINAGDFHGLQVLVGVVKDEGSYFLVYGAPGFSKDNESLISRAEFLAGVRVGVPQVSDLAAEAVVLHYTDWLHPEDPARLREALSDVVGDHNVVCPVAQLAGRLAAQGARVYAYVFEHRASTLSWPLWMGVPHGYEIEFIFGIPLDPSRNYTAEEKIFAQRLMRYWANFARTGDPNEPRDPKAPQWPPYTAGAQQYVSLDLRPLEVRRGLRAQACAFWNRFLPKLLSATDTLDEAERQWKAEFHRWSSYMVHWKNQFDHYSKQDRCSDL
Experimental: The Ellman method was followed, using human recombinant AChE and BuChE from human serum. The assay solution consisted of 0.1 M phosphate buffer pH 8.0, 400 μM 5,5´-dithiobis(2-nitrobenzoic acid) (DTNB, Ellman’s reagent), 0.05 U/mL hAChE (Sigma Chemical Co.) or 0.024 U/mL hBuChE (Sigma Chemical Co.), and 800 μM acetylthiocholine iodide, or 500 μM butyrylthiocholine as the substrate of the enzymatic reaction, respectively. The compounds tested were added to the assay solution and preincubated with the enzyme for 5 min at 30 °C. After that period, the substrate was added.

recombinant hMAO-A = target: T2, recombinant hMAO-A (Homo sapiens, UniProt P21397); assay: biochemical; format: biochemical; conditions: mean ± SEM (n = 3); 100 µM highest concentration tested
T2 sequence (P21397 1-527): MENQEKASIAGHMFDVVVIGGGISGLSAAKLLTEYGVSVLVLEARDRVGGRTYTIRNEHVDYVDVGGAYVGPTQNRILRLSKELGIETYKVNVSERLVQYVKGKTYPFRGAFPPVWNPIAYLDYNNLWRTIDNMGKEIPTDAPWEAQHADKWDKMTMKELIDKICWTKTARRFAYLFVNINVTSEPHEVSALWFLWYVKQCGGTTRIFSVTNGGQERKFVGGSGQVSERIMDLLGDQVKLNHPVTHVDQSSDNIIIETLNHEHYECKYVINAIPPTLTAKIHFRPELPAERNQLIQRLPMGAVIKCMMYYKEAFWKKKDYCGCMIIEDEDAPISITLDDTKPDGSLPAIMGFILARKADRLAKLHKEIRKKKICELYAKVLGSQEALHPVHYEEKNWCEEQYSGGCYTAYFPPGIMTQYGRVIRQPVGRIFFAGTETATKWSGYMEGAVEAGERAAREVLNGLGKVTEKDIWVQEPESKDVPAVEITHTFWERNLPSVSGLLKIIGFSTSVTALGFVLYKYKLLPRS

recombinant hMAO-B = target: T3, recombinant hMAO-B (Homo sapiens, UniProt P27338); assay: biochemical; format: biochemical; conditions: for IC50: mean ± SEM (n = 3), 100 µM highest concentration tested
T3 sequence (P27338 1-520): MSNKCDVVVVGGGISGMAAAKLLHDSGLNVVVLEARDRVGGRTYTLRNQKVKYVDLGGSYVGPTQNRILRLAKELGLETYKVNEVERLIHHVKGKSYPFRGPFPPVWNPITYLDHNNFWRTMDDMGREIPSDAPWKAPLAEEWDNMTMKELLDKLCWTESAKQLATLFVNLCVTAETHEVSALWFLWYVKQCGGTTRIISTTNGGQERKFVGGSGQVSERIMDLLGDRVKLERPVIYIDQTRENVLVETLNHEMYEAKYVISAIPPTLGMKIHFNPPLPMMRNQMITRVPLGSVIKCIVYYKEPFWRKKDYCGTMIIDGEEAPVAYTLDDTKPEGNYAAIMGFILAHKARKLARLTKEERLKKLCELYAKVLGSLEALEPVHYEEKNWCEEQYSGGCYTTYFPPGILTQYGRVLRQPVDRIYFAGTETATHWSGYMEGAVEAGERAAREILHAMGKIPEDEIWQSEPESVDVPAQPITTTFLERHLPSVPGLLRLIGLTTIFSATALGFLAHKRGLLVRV

[2] = In vitro blood-brain barrier permeation assay (PAMPA-BBB); format: in vitro ADME; conditions: pig, pH 7.4, porcine brain lipid, PBS:ethanol (70:30), 25 °C, read-out: PAMPA-BBB permeability in the CNS (Pe)
Experimental: Prediction of the brain penetration was evaluated using a parallel artificial membrane permeation assay (PAMPA-BBB), in a similar manner as previously described[36]^,[46]^,[51–53]. Pipetting was performed with a semi-automatic pipettor (CyBi®-SELMA) and UV reading with a microplate spectrophotometer (Multiskan Spectrum, Thermo Electron Co.). Commercial drugs, phosphate buffered saline solution at pH 7.4 (PBS), and dodecane were purchased from Sigma, Aldrich, Acros, and Fluka. Millex filter units (PVDF membrane, diameter 25 mm, pore size 0.45 μm) were acquired from Millipore. The porcine brain lipid (PBL) was obtained from Avanti Polar Lipids. The donor microplate was a 96-well filter plate (PVDF membrane, pore size 0.45 μm) and the acceptor microplate was an indented 96-well plate, both from Millipore. The acceptor 96-well microplate was filled with 200 μL of PBS: ethanol (70:30) and the filter surface of the donor microplate was impregnated with 5 μL of porcine brain lipid (PBL) in dodecane (20 mg mL^−1). Compounds were dissolved in PBS: ethanol (70:30) at 100 μg mL^−1, filtered through a Millex filter, and then added to the donor wells (200 μL). The donor filter plate was carefully put on the acceptor plate to form a sandwich, which was left undisturbed for 120 min at 25 °C. After incubation, the donor plate is carefully removed and the concentration of compounds in the acceptor wells was determined by UV-Vis spectroscopy. Every sample is analysed at five wavelengths, in four wells and at least in three independent runs, and the results are given as the mean ± standard deviation. In each experiment, 11 quality control standards of known BBB permeability were included to validate and normalise the analysis set.
To check if new compounds could be able to reach their CNS-targets, we used the in vitro parallel artificial membrane permeability assay for the blood-brain barrier (PAMPA-BBB) described by Di et al.[87], and partially modified by us for testing molecules with limited water-solubility[36]^,[46]^,[51–53]. The passive CNS-permeation of new compounds 1–13 through a lipid extract of porcine brain was measured at room temperature. In each experiment, 11 commercial drugs of known brain permeability were also tested and their permeability values normalised to the reported PAMPA-BBB data. […].

[3] = Oxygen radical absorbance capacity assay (ORAC); conditions: trolox taken as 1.0
hLOX-5 = target: T4, hLOX-5 (Homo sapiens, UniProt P09917); assay: Inhibition of human lipoxygenase-5 (fluorescence-based, Pufahl); format: biochemical; conditions: three independent experiments
T4 sequence (P09917 1-674): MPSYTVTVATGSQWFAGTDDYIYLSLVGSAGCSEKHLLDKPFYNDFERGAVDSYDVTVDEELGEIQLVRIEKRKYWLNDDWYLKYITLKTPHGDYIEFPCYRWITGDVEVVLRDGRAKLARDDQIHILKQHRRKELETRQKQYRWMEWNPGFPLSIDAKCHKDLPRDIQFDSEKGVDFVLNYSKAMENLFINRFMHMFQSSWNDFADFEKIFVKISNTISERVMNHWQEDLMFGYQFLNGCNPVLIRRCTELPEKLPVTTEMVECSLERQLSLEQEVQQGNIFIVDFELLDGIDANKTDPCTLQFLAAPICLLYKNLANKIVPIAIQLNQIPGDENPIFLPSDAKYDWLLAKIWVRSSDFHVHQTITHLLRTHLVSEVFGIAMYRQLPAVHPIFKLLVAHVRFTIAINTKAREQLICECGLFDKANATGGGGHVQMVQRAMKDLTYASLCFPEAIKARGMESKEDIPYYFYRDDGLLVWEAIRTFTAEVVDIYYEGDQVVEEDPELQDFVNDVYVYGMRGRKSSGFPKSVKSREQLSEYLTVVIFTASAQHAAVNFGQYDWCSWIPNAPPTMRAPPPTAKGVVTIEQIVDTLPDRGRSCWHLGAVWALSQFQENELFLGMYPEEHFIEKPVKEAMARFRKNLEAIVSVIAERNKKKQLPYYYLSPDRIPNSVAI
Experimental: The fluorescence-based enzyme method developed by Pufahl et al. was followed, in 96-well microtiter plates. The assay solution consists of Tris buffer (50 mM, pH 7.5), ethylenediaminetetraacetic acid (EDTA, 2 mM), CaCl2 (2 mM), arachidonic acid (AA, 3 μM), ATP (10 μM), 2',7'-dichlorodihydrofluorescein diacetate (H2DCFDA, 10 μM), hLOX-5 (100 mU/well), bovine glutathione peroxidase (GPx, 25 mU/well) and reduced glutathione (GSH, 1 mM). Compounds to be tested were added to the test solution prior to AA and ATP, and pre-incubated for a period of 10 min at room temperature. Then, the AA and ATP substrates were added; the enzymatic reaction allowed to progress for 20 min and ended by the addition of 40 μL of acetonitrile.
A selection of new hybrids covering different structural motifs was assayed as inhibitors of hLOX-5, followed the method described by Pufahl et al.[55].

[4] = mean ± SEM (n = 3), read-out: hAChE IC50

Row | SMILES | IC50 ([1]; hAChE IC50, mean ± SEM (n = 3)) | IC50 (recombinant hMAO-A) | IC50 (recombinant hMAO-B) | Papp at 120 min, 100 μg mL^−1 [2] | ORAC, trolox equivalents [3] | IC50 (hLOX-5; hLOX-5 IC50, mean ± SEM) | IC50 [1, 4] | more active in hMAO-B than in hMAO-A (recombinant hMAO-B) | hLOX-5 IC50 (hLOX-5; mean ± SEM) | IC50 (hLOX-5; mean ± SEM, read-out: hLOX-5 IC50)
1 | COc1cc(OC)c2c(=O)cc(C(=O)Nc3ccc(CN(C)Cc4ccccc4)cc3)oc2c1 [Compound 3, N-(4-((Benzyl(methyl)amino)methyl)phenyl)-5,7-dimethoxy-4-oxo-4H-chromene-2-carboxamide] | 3.2 ± 0.4 µM | > 100 µM | > 100 µM | 19.4 ± 1.7 ×10⁻⁶ cm/s |  |  |  |  |  | 
2 | CN(Cc1ccccc1)Cc1ccc(NC(=O)c2cc(=O)c3cc(O)ccc3[nH]2)cc1 [Compound 9, N-(4-((Benzyl(methyl)amino)methyl)phenyl)-6-hydroxy-4-oxo-1,4-dihydroquinoline-2-carboxamide] | 3.1 ± 0.3 µM | > 100 µM | > 100 µM | 8.4 ± 0.7 ×10⁻⁶ cm/s | 1.2 mmol of trolox/mmol of tested compound and 1.2 ± 0.1 mmol of trolox/mmol of tested compound |  |  |  |  | 
3 | COc1cc2[nH]c(C(=O)Nc3cccc(CN(C)Cc4ccccc4)c3)cc(=O)c2cc1OC [Compound 13, N-(3-((Benzyl(methyl)amino)methyl)phenyl)-6,7-dimethoxy-4-oxo-1,4-dihydroquinoline-2-carboxamide] | > 10 µM | > 100 µM | > 100 µM | 15.1 ± 1.2 ×10⁻⁶ cm/s |  | 36.6 ± 3.1 µM |  |  |  | 
4 | CN(Cc1ccccc1)Cc1ccc(NC(=O)c2cc(=O)c3cc(O)c(O)cc3[nH]2)cc1 [Compound 12, N-(4-((benzyl(methyl)amino)methyl)phenyl)-6,7-dihydroxy-4-oxo-1,4-dihydroquinoline-2-carboxamide] | > 10 µM | > 100 µM | > 100 µM | 8.8 ± 0.7 ×10⁻⁶ cm/s | 0.5 mmol of trolox/mmol of tested compound and 0.5 ± 0.1 mmol of trolox/mmol of tested compound |  |  |  |  | 
5 | COc1cccc2[nH]c(C(=O)Nc3ccc(CN(C)Cc4ccccc4)cc3)cc(=O)c12 [Compound 7, N-(4-((Benzyl(methyl)amino)methyl)phenyl)-5-methoxy-4-oxo-1,4-dihydroquinoline-2-carboxamide] |  | > 100 µM | 15.2 ± 1 µM | 23 ± 2.1 ×10⁻⁶ cm/s |  |  | 4 ± 0.4 µM | 6.6 fold |  | 
6 | COc1ccc2[nH]c(C(=O)Nc3ccc(CN(C)Cc4ccccc4)cc3)cc(=O)c2c1 [Compound 8, N-(4-((Benzyl(methyl)amino)methyl)phenyl)-6-methoxy-4-oxo-1,4-dihydroquinoline-2-carboxamide] |  | > 100 µM | > 100 µM | 24.8 ± 2 ×10⁻⁶ cm/s |  |  | 2.3 ± 0.1 µM |  | inactive | > 100 µM
7 | COc1ccc2c(=O)cc(C(=O)Nc3ccc(CN(C)Cc4ccccc4)cc3)[nH]c2c1 [Compound 10, N-(4-((Benzyl(methyl)amino)methyl)phenyl)-7-methoxy-4-oxo-1,4-dihydroquinoline-2-carboxamide] | 2.3 ± 0.2 µM | > 100 µM | > 100 µM | 21.7 ± 1.9 ×10⁻⁶ cm/s |  | 82.8 ± 4.1 µM |  |  |  | 
8 | Cc1c(C)c2c(c(C)c1O)CCC(C)(C(=O)O)O2 (racemic) [Trolox, (±)-6-hydroxy-2,5,7,8-tetramethylchromane-2-carboxylic acid, reference compound] |  |  |  |  | 1.0 mmol of trolox/mmol of tested compound |  |  |  |  | 
9 | COc1cc2[nH]c(C(=O)Nc3ccc(CN(C)Cc4ccccc4)cc3)cc(=O)c2cc1OC [Compound 11, N-(4-((benzyl(methyl)amino)methyl)phenyl)-6,7-dimethoxy-4-oxo-1,4-dihydroquinoline-2-carboxamide] | 4.5 ± 0.3 µM | > 100 µM | > 100 µM | 19.1 ± 1.5 ×10⁻⁶ cm/s |  |  |  |  |  | 
